Results on seven molecules are retold here after US20130029970A1 (priority 2009, published 2013).

One experiment addresses T1, human CB2 receptors (Homo sapiens, UniProt P34972).
T1 construct: (cDNA clone) CNR0200000
Put plainly: cAMP assay in HEK-293 cells, hCB2 agonist. The conditions noted are these: inhibition of forskolin-stimulated cAMP, HEK-293 cells; for EC50: read-out: hCB2 EC50 (cAMP ag). Format: cell-based. How it is done:
(§1) Functional assays which monitor G-protein coupled receptor or downstream cellular responses can be used to characterize potential CB1 receptor and/or CB2 receptor agonist or antagonist activities. Direct activation (or inhibition of activation) can be monitored using a GTPγS assay (membrane-based assay) or cAMP assay (whole cell-based assay).
cAMP assays were performed in HEK-293 cells stably expressing human CB1 or CB2 receptors. […] Cells suspensions were centrifuged and the cells were washed once with PBS, were centrifuged again, and the cells were re-suspended in HBSS (Hank's Balanced Salt Solution, Cellgro, Cat #21-022-CV) solution containing 10 mM HEPES and 0.1% fatty acid free BSA (Sigma, Cat #A0281). Cell suspensions were prepared at 1,500,000 cells per ml. Stock solutions of test substances (10 mM) in DMSO were diluted to 1 mM using 30% DMSO as diluent. Test substances of solutions (1 mM) were further diluted down to 3× of final assay concentrations in the above HBSS buffer containing 0.1% BSA in the presence of 90 uM forskolin (Sigma Cat#F6886). To perform the assay, 20 uL of cell suspension (1,500,000 cells/mL) were added to each well in 96 well plate and treated with 10 uL test substance solution diluted as described above. Cells and compounds were incubated at 37° C. for 30 minutes. Cells were lysed and cAMP concentration was measured using DiscoveRx −XS+ cAMP assay kit (DiscoveRx Corporation Ltd., Fremont, Calif., USA, Cat #90-0075-03), following the manufacturer's protocol. GraphPad Prism software was used to calculate EC50 values using sigmoidal dose response curve fitting. The maximal amount of cAMP produced by forskolin was defined as 100%.
For orientation: Cyclic AMP is a second messenger, typically raised through Gs and lowered through Gi signalling.

The next experiment has as its target T2, human CB1 receptors (Homo sapiens, UniProt P21554).
T2 construct: (cDNA clone) CNR01L000
Put plainly: cAMP assay in HEK-293 cells, hCB1 agonist. Type of experiment: cell-based. The conditions noted are these: inhibition of forskolin-stimulated cAMP, HEK-293 cells.
Source text: Stable, HEK-293-derived cell lines that recombinantly express hCBI or hCB2 were established. In brief, the clone hCB1 (CNR IL) or hCB2 (CNR2) was transfected into human embryonic kidney cells (HEK-293) using Lipofectamine 2000 (Gibco, Cat#11668-019) according to the manufacturer's protocol. Transfected clones were isolated by single colony purification and clones were screened for receptor expression using a whole cell, ^3H—CP 55,940 radioligand binding assay. HEK-293 stable cells were maintained in Dulbecco's modified Eagles medium (DMEM) containing 10% fetal bovine serum, 2 mM L-glutamine and 0.5 mg/mL G-418.
as §1
cAMP assays were performed in HEK-293 cells stably expressing human CB1 or CB2 receptors. For cannabinoid receptor functional assays measuring agonist effects on cellular cAMP levels, monolayers of cultured cells were harvested with enzyme-free PBS-based cell dissociation buffer (Gibco, Cat#13151-04). Cells suspensions were centrifuged and the cells were washed once with PBS, were centrifuged again, and the cells were re-suspended in HBSS (Hank's Balanced Salt Solution, Cellgro, Cat #21-022-CV) solution containing 10 mM HEPES and 0.1% fatty acid free BSA (Sigma, Cat #A0281). Cell suspensions were prepared at 1,500,000 cells per ml. Stock solutions of test substances (10 mM) in DMSO were diluted to 1 mM using 30% DMSO as diluent. Test substances of solutions (1 mM) were further diluted down to 3× of final assay concentrations in the above HBSS buffer containing 0.1% BSA in the presence of 90 uM forskolin (Sigma Cat#F6886). To perform the assay, 20 uL of cell suspension (1,500,000 cells/mL) were added to each well in 96 well plate and treated with 10 uL test substance solution diluted as described above. Cells and compounds were incubated at 37° C. for 30 minutes. Cells were lysed and cAMP concentration was measured using DiscoveRx −XS+ cAMP assay kit (DiscoveRx Corporation Ltd., Fremont, Calif., USA, Cat #90-0075-03), following the manufacturer's protocol. GraphPad Prism software was used to calculate EC50 values using sigmoidal dose response curve fitting. The maximal amount of cAMP produced by forskolin was defined as 100%. CB1 or CB2 agonists reduced forskolin-stimulated cAMP signaling. The EC50 value of an agonist compound was defined as the concentration at which 50% of the forskolin-stimulated cAMP synthesis was inhibited.

For the next experiment, the target named is T3, human CB2 (hCB2) (Homo sapiens, UniProt P34972).
T3 construct: (cDNA clone) CNR0200000
The experiment is described as follows: 35S GTPγS binding assay, hCB2 agonist. Type of experiment: biochemical. The conditions noted are these: GTPγS agonist, HEK-293 membranes; read-out: hCB2 EC50 (GTPyS ag). How it is done: cDNA expression clones for human CB1 (hCB1, Genbank Accession No. AY225225) and human CB2 (hCB2, Genbank Accession No. AY242132) expressed in vector pcDNA3.1+ were purchased from UMR cDNA Resource Center, Rolla, Mo. (Clone ID CNR01L000 for hCB1; CNR0200000 for hCB2).
(§2) Membranes were isolated from transfected cells as follows. Monolayers of cultured cells were washed twice with phosphate-buffered saline (PBS). […] Homogenates were centrifuged 10 minutes at 1000×g at 4° C. The supernatant was collected and was centrifuged for 1 hour at 40,000×g. The supernatant was then decanted and the resulting pellet was re-suspended in 20 mM HEPES, pH 7.4, 5 mM MgCl2, 1 mM EDTA, 10% sucrose with complete cocktail protease inhibitors. Protein concentration of membrane suspensions were measured by Bradford Protein Assay using bovine serum albumin as the standard (BioRad catalog #500-0006). Protein concentrations of membrane suspensions were adjusted with the final buffer in the range of 5 to 10 mg/mL and were stored at −80° C. until further use.
as §1
^35S GTPγS binding assays were performed by incubating recombinant cell membranes prepared above (5 μg) in the presence of scintillation proximity assay beads (SPA beads, Catalog #RPNQ0252 GE Healthcare, Buckinghamshire, England) in GTPγS binding buffer [50 mM HEPES (pH 7.4), 100 mM NaCl, 5 mM MgCl2, 0.001% saponin (Sigma catalog #S4521)] supplemented with 20 uM GDP (Sigma catalog #G7127) in the presence or absence of test compound. The reaction was carried out in 96-well microplates with 0.1 nM [^35S]GTPγS (specific activity=1250 Ci/mmol; Perkin Elmer catalog #NEG030X250UC) in a final volume of 100 uL. After a 90 min room temperature incubation, the reaction was analyzed using a scintillation counter (Perkin Elmer Microbeta instrument). Binding data were analyzed using GraphPad Prism.
In general terms: GTPγS is a poorly hydrolysed GTP analogue; its binding reports G protein activation.

Experiment [1] has as its target T4, recombinant human cannabinoid receptor CB2 (Homo sapiens, UniProt P34972).
T4 construct: (cDNA clone) CNR0200000
Put plainly: Cannabinoid receptor radioligand binding assay, [3H]-CP 55,940 displacement, hCB2. How it is done:
as §2
A rapid filtration technique using Millipore FB filter plates (Catalog #MADVNOB) and filtration apparatus (Millipore system Catalog MAVM0960R) with vacuum aspiration was used to harvest and rinse labeled membranes (8 times with 0.2 mL of chilled binding buffer). […] Binding data were analyzed using GraphPad Prism (GraphPad Software, Inc. San Diego, Calif.).

T1 sequence (P34972 whole entry): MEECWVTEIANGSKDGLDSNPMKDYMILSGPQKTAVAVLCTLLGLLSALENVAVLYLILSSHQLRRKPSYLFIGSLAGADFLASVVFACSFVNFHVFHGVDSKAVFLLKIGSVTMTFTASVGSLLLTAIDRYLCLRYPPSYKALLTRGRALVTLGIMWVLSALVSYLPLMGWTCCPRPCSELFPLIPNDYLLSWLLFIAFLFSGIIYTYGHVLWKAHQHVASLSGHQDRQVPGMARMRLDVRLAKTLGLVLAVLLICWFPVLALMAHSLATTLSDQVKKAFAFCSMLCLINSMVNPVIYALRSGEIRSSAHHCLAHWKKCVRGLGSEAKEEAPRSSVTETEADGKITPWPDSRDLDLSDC
T3 sequence (P34972 whole entry): as above
T4 sequence (P34972 whole entry): as above
T2 sequence (P21554 whole entry): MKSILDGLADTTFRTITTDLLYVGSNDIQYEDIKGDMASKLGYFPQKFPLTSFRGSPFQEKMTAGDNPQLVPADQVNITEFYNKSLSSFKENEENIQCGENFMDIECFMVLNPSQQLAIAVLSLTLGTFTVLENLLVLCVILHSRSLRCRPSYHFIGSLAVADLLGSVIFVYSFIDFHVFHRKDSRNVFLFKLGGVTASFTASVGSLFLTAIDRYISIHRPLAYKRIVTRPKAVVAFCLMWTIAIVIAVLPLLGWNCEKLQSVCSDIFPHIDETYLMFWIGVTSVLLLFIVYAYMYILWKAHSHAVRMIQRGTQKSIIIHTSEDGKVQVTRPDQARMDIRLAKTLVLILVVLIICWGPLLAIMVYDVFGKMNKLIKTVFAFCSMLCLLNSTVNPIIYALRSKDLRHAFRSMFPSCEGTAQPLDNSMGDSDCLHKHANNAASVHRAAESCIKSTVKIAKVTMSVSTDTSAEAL

In the case of `COc1ccc(C(=O)c2cc3cc(C)n(CCN4CCNC4=O)c3s2)cc1` [Compound 61], the “hCB2 EC50 (cAMP ag, nM)” value at human CB2 receptors is listed as “NS (NS means “Not Significant,” which means less than 30% agonist activity when compared to the positive control.)”. Further, the “hCB1 EC50 (cAMP ag, nM)” value at human CB1 receptors was “NS (NS means “Not Significant,” which means less than 30% agonist activity when compared to the positive control.)”.

As to `COc1ccc(C(=O)c2cc3cc(C)n(CCCNC(C)=O)c3s2)cc1` [Compound 63, N-(3-(2-(4-Methoxybenzoyl)-5-methyl-6H-thieno[2,3-b]pyrrol-6-yl)propyl)acetamide], the “hCB2 EC50 (cAMP ag, nM)” value at human CB2 receptors was “NS (NS means “Not Significant,” which means less than 30% agonist activity when compared to the positive control.)”. For the same molecule, at human CB1 receptors, the “hCB1 EC50 (cAMP ag, nM)” value is reported as “NS (NS means “Not Significant,” which means less than 30% agonist activity when compared to the positive control.)”.

Turning to `COc1ccc(C(=O)c2cc3cc(C)n(CCCNS(=O)(=O)C(F)(F)F)c3s2)cc1` [Compound 75, 1,1,1-Trifluoro-N-(3-(2-(4-methoxybenzoyl)-5-methyl-6H-thieno[2,3-b]pyrrol-6-yl)propyl)methanesulfonamide], the “hCB2 EC50 (cAMP ag, nM)” value at human CB2 receptors was “NS (NS means “Not Significant,” which means less than 30% agonist activity when compared to the positive control.)”. In addition, the “hCB1 EC50 (cAMP ag, nM)” value on human CB1 receptors is reported as “NS (NS means “Not Significant,” which means less than 30% agonist activity when compared to the positive control.)”.

With `CCOc1ccc(C(=O)c2cc3cc(C)n(CCCNS(C)(=O)=O)c3s2)cc1` [Compound 94, N-(3-(2-(4-Ethoxybenzoyl)-5-methyl-6H-thieno[2,3-b]pyrrol-6-yl)propyl)methanesulfonamide], the values for the EC50 at human CB2 (hCB2) and at human CB2 receptors were below 100 nM and 100 to 1000 nM, respectively. On human CB1 receptors, the “hCB1 EC50 (cAMP ag, nM)” value is “NS (NS means “Not Significant,” which means less than 30% agonist activity when compared to the positive control.)”. Further, in experiment [1], the IC50 (usually the concentration that gives 50% inhibition) lay in the range of 100 to 1000 nM.

Take `CCOc1ccc(C(=O)c2cc3cc(C)n(CCCNS(C)(=O)=O)c3s2)c(F)c1` [Compound 95, N-(3-(2-(4-Ethoxy-2-fluorobenzoyl)-5-methyl-6H-thieno[2,3-b]pyrrol-6-yl)propyl)methanesulfonamide]: the EC50 (commonly the midpoint of the concentration-response curve) on human CB2 (hCB2) is 100 to 1000 nM; at human CB2 receptors, below 100 nM. At human CB1 receptors, the “hCB1 EC50 (cAMP ag, nM)” value is “NS (NS means “Not Significant,” which means less than 30% agonist activity when compared to the positive control.)”. Moreover, the IC50 in experiment [1] lay within 100 to 1000 nM.

In the case of `Cc1ccc(C(=O)c2cc3cc(C)n(CCCNS(C)(=O)=O)c3s2)c(F)c1` [Compound 97, N-(3-(2-(2-Fluoro-4-methylbenzoyl)-5-methyl-6H-thieno[2,3-b]pyrrol-6-yl)propyl)methanesulfonamide], the EC50 at human CB2 (hCB2) and on human CB2 receptors was below 100 nM in each case. Further, the “hCB1 EC50 (cAMP ag, nM)” value at human CB1 receptors was “NS (NS means “Not Significant,” which means less than 30% agonist activity when compared to the positive control.)”. The IC50 in experiment [1] fell in the range of 100 to 1000 nM.

As for `COc1ncc(C(=O)c2cc3cc(C)n(CCN4CCOCC4)c3s2)cn1` [Compound 118, (2-Methoxypyrimidin-5-yl)(5-methyl-6-(2-morpholinoethyl)-6H-thieno[2,3-b]pyrrol-2-yl)methanone], the EC50 at human CB2 (hCB2) and at human CB2 receptors was 100 to 1000 nM throughout. In addition, the “hCB1 EC50 (cAMP ag, nM)” value on human CB1 receptors is reported as “NS (NS means “Not Significant,” which means less than 30% agonist activity when compared to the positive control.)”.
